According to paper PMC7395176, “Retromer stabilization results in neuroprotection in a model of Amyotrophic Lateral Sclerosis” (Nature Communications, 2020):

System: GM130
Test: Golgi apparatus (GM130) in MNs of treated G93A mice
Format: in vivo
Details: 10 mg/kg, day 100
From the text: Ubiquitinated inclusions accumulate in MNs from sALS and fALS patients, and in ALS mice[51]. We characterized poly-ubiquitinated proteins in lumbar SCs protein extracts by 10% denaturating PAGE. Protein extracts from Neuro2a cells treated with the proteasome inhibitor Bortezomib (BTZ), able to increase poly-ubiquitination, were used as an experimental control[52] (Fig. 7a). […] We next scored ubiquitin MFI levels in ventral horn MNs of G93A mice. […] (Fig. 7c and d). We next scored the Golgi apparatus in G93A mice by labeling lumbar sections for the cis-Golgi matrix protein GM130[54]. […] (Fig. 7e).
Sections from mice or glass covers containing cells were washed three times in PBS 1× (Lonza, 5 min each), and incubated in the following blocking mix: PBS 1×/FBS 10% (Invitrogen), BSA 1 mg/mL (Sigma–Aldrich), TritonX100 0.1% (Sigma Aldrich), for 1 h at room temperature. Antibodies were diluted in blocking mix and incubated at +4 °C overnight according manufacturer’s instructions. The following day, sections were rinsed in PBS and fluorescent secondary antibodies—i.e. never deriving from the species from which the primary antibodies are derived- (Alexafluor conjugated) diluted in blocking mix, were used according to the manufacturer’s instructions. Slides were incubated in Hoechst 33342 (Sigma–Aldrich) for nuclei counterstaining. […]

In the case of `NC(N)=N/N=C/c1cccc(/C=N/N=C(N)N)c1` [compound 2a, phenyl-1,3-bis-guanylhydrazone], the “reduction of GM130-covered areas in MNs (Golgi fragmentation)” value is reported as “substantially reverted”.
